Experimental data taken from ChEMBL document CHEMBL3039007, “Structure-based identification of OATP1B1/3 inhibitors” (Mol Pharmacol, 2013).

Experiments:
[1] = biological target: T1, Solute carrier organic anion transporter family member 1B3 (Homo sapiens, UniProt Q9NPD5); conditions: chinese hamster, cho, 10 µM
T1 sequence (Q9NPD5 whole entry): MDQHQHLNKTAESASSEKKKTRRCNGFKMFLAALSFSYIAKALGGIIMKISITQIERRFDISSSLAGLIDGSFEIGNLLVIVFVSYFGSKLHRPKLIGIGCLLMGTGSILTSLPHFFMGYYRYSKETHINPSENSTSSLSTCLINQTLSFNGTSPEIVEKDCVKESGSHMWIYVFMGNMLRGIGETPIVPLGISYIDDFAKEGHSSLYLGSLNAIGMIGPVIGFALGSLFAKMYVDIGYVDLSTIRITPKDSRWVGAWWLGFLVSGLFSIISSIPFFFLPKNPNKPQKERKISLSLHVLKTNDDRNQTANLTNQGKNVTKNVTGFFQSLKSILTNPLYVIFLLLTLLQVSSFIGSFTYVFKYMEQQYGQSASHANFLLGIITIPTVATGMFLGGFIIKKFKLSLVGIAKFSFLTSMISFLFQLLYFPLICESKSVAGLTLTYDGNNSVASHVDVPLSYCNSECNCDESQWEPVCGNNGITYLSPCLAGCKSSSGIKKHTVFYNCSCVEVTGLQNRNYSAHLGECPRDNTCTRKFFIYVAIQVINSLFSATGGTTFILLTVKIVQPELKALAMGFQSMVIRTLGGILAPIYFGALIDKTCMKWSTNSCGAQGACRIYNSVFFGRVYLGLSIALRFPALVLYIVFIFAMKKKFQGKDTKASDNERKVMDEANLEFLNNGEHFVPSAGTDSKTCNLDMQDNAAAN

[2] = biological target: T2, Solute carrier organic anion transporter family member 1B1 (Homo sapiens, UniProt Q9Y6L6); conditions: chinese hamster, cho, 10 µM
T2 sequence (Q9Y6L6 whole entry): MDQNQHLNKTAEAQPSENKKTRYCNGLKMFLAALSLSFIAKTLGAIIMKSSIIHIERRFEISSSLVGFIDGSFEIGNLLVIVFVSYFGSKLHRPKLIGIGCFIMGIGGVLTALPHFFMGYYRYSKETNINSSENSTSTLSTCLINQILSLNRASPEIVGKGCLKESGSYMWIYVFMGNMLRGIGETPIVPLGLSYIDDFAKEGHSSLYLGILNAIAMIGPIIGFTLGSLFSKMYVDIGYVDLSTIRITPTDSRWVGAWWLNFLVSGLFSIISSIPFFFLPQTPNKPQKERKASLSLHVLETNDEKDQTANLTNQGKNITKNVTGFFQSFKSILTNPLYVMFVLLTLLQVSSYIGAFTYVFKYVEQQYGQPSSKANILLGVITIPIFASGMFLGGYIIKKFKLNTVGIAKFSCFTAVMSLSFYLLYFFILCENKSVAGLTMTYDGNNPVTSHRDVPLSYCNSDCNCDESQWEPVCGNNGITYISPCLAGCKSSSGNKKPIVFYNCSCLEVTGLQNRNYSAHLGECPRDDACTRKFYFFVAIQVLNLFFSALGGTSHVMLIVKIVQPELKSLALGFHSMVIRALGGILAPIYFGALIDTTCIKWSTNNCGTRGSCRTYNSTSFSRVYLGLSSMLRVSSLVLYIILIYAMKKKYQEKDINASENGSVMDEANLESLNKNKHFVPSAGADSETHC

SMILES | residual activity [1] [%] | residual activity [2] [%]
COC(=O)C(O)c1ccccc1 (centres undefined) [MANDELIC ACID, METHYL ESTER] | 76.32 | 97.92
COc1c(O)cc2oc3cc(O)c(CC=C(C)C)c(O)c3c(=O)c2c1CC=C(C)C [MANGOSTIN] | 110.4 | 150.2
CC(=O)OC(C)(C)[C@@H]1Cc2cc3ccc(=O)oc3cc2O1 [MARMESIN ACETATE] | 88.18 | 70.52
CC(C)(O)[C@@H]1Cc2cc3ccc(=O)oc3cc2O1 [MARMESIN] | 103.9 | 89.64
COC(=O)Nc1nc2ccc(C(=O)c3ccccc3)cc2[nH]1 [MEBENDAZOLE] | 99 | 159.5
CCN(CCCCOC(=O)c1ccc(OC)c(OC)c1)C(C)Cc1ccc(OC)cc1.Cl (centres undefined) [MEBEVERINE HYDROCHLORIDE] | 112 | 89.99
CNC1(C)C2CCC(C2)C1(C)C.Cl (centres undefined) [MECAMYLAMINE HYDROCHLORIDE] | 106.8 | 93.56
C=C1c2c(Cl)ccc(O)c2C(=O)C2=C(O)[C@]3(O)C(=O)C(C(N)=O)=C(O)[C@@H](N(C)C)[C@@H]3[C@@H](O)[C@H]12.O=C(O)c1cc(S(=O)(=O)O)ccc1O [MECLOCYCLINE SULFOSALICYLATE] | 107.8 | 122.1
Cc1ccc(Cl)c(Nc2ccccc2C(=O)[O-])c1Cl.O.[Na+] [MECLOFENAMATE SODIUM] | 87.03 | 77.28
COC(=O)C(N)CS.Cl (centres undefined) [MECYSTEINE HYDROCHLORIDE] | 99.55 | 97.76
CC(=O)O[C@]1(C(C)=O)CC[C@H]2[C@@H]3C[C@H](C)C4=CC(=O)CC[C@]4(C)[C@H]3CC[C@@]21C [MEDROXYPROGESTERONE ACETATE] | 104.4 | 105.9
CNc1ccc(C(=O)CC(O)CCC(C)C2OC(=O)CC(O)CC(=O)CC(O)CC(O)CC(O)CC(O)CC3(O)CC(O)C(C(=O)OC)C(CC(O[C@@H]4O[C@H](C)[C@@H](O)[C@H](N)[C@@H]4O)/C=C/C=C/C=C/C=C/C=C/C=C/C=C/C2C)O3)cc1.COC(=O)C1C(O)CC2(O)CC(O)CC(O)CC(O)CC(O)CC(=O)CC(O)CC(=O)OC(C(C)CCC(O)CC(=O)c3ccc(N)cc3)C(C)/C=C/C=C/C=C/C=C/C=C/C=C/C=C/C(O[C@@H]3O[C@H](C)[C@@H](O)[C@H](N)[C@@H]3O)CC1O2 (some centres undefined) [MEPARTRICIN] | 86.4 | 95.55

Now from value to compound:

residual activity [1] [%] | residual activity [2] [%] | SMILES
90.89 | 86.36 | CC(=O)[C@H]1CC[C@H]2[C@@H]3C[C@H](C)C4=CC(=O)CC[C@]4(C)[C@H]3[C@@H](O)C[C@]12C [MEDRYSONE]
72.63 | 63.23 | Cc1cccc(Nc2ccccc2C(=O)O)c1C [MEFENAMIC ACID]
112.7 | 161.6 | OC(c1cc(C(F)(F)F)nc2c(C(F)(F)F)cccc12)C1CCCCN1 (centres undefined) [MEFLOQUINE]
93.03 | 50.69 | CC(=O)O[C@]1(C(C)=O)CC[C@H]2[C@@H]3C=C(C)C4=CC(=O)CC[C@]4(C)[C@H]3CC[C@@]21C [MEGESTROL ACETATE]
91.63 | 71.02 | COc1ccc2[nH]cc(CCNC(C)=O)c2c1 [MELATONIN]
96.54 | 99.1 | OC[C@H]1O[C@@](CO)(O[C@H]2O[C@H](CO)[C@@H](O)[C@H](O)[C@H]2O)[C@@H](O[C@H]2O[C@H](CO)[C@@H](O)[C@H](O)[C@H]2O)[C@@H]1O [MELEZITOSE]
88.95 | 88.64 | CC12CC3CC(C)(C1)CC(N)(C3)C2.Cl [MEMANTINE HYDROCHLORIDE]
112.1 | 157.5 | CC1=CC(=O)c2ccccc2C1=O [MENADIONE]
100.2 | 96.98 | CC(C)[C@@H]1CC[C@@H](C)CC1=O [MENTHONE]
101.1 | 100.9 | CC(C)[C@@H]1CC[C@@H](C)C[C@H]1OC(=O)c1ccccc1 [MENTHYL BENZOATE]
